Data reported in patent US20040156869A1, “2-substituted quinazolin-4-ylamine analogues” (Neurogen Corporation, priority 2002, published 2004).

target: human capsaicin receptor (VR1) (Homo sapiens, UniProt Q8NER1); experiment: Capsaicin receptor binding assay ([3H]RTX competition, VR1-transfected HEK293 membranes)
Sequence (Q8NER1 whole entry): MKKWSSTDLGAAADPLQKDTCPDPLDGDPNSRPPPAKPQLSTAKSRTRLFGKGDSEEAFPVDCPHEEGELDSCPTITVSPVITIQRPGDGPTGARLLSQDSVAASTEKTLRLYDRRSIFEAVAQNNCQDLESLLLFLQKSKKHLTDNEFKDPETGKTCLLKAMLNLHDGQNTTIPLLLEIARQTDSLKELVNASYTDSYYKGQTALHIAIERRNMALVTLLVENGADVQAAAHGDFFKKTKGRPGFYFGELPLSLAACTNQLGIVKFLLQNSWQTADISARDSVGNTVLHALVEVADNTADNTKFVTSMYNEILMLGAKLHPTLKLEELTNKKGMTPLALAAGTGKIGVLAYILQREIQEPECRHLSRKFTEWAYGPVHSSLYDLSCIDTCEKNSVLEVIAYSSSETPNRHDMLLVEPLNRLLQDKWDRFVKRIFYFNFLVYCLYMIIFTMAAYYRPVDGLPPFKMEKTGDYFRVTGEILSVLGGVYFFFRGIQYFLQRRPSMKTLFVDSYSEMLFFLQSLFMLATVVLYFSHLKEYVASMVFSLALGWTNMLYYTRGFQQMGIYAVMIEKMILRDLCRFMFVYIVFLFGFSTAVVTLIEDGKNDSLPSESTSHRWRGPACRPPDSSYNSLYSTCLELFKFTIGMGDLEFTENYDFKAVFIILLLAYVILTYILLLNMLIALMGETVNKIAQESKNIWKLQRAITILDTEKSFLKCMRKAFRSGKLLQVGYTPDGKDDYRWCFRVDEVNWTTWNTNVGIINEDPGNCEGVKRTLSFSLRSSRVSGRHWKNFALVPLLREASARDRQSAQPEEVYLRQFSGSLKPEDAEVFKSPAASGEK

Ki, < 1 µM:
COCc1nc(Nc2ccc(S(=O)(=O)N3CCOCC3)cc2)c2ccc(-c3ncccc3C(F)(F)F)nc2n1 [Compound 114, [2-Methoxymethyl-7-(3-trifluoromethyl-pyridin-2-yl)-pyrido[2,3-d]pyrimidin-4-yl]-[4-(morpholine-4-sulfonyl)-phenyl]-amine]
CCN(CC)CCCOCc1nc(Nc2ccc(C(F)(F)F)cc2)c2ccc(-c3ncccc3C(F)(F)F)cc2n1 [Compound 115, [2-(3-Diethylamino-propoxymethyl)-7-(3-trifluoromethyl-pyridin-2-yl)-quinazolin-4-yl]-(4-trifluoromethyl-phenyl)-amine]
CN(C)CCCOCc1nc(Nc2ccc(C(C)(C)C)cc2)c2ccc(-c3ncccc3C(F)(F)F)cc2n1 [Compound 116, (4-tert-Butyl-phenyl)-[2-(3-dimethylamino-propoxymethyl)-7-(3-trifluoromethyl-pyridin-2-yl)-quinazolin-4-yl]-amine]
CCN(CC)CCCOCc1nc(Nc2ccc(C(C)(C)C)cc2)c2ccc(-c3ncccc3C(F)(F)F)cc2n1 [Compound 117, (4-tert-Butyl-phenyl)-[2-(3-diethylamino-propoxymethyl)-7-(3-trifluoromethyl-pyridin-2-yl)-quinazolin-4-yl]-amine]
COCc1nc(Nc2ccc(C3CC3)cc2)c2ccc(-c3ncccc3C(F)(F)F)cc2n1 [Compound 118, (4-Cyclopropyl-phenyl)-[2-methoxymethyl-7-(3-trifluoromethyl-pyridin-2-yl)-quinazolin-4-yl]-amine]
Cc1cccnc1-c1ccc2c(Nc3ccc(C(F)(F)F)cc3)nc(CO)nc2n1 [Compound 119, [7-(3-Methyl-pyridin-2-yl)-4-(4-trifluoromethyl-phenylamino)-pyrido[2,3-d]pyrimidin-2-yl]-methanol]
COCc1nc(Nc2ccc(S(=O)(=O)N3CCOCC3)cc2)c2ncc(-c3ncccc3Cl)cc2n1 [Compound 120, [7-(3-Chloro-pyridin-2-yl)-2-methoxymethyl-pyrido[3,2-d]pyrimidin-4-yl]-[4-(morpholine-4-sulfonyl)-phenyl]-amine]
OCc1nc(Nc2ccc(C(F)(F)F)cc2)c2ncc(-c3ncccc3C(F)(F)F)cc2n1 [Compound 121, [4-(4-Trifluoromethyl-phenylamino)-7-(3-trifluoromethyl-pyridin-2-yl)-pyrido[3,2-d]pyrimidin-2-yl]-methanol]
OCc1nc(Nc2ccc(C(F)(F)F)cc2)c2ncc(-c3ncccc3Cl)cc2n1 [Compound 122, [7-(3-Chloro-pyridin-2-yl)-4-(4-trifluoromethyl-phenylamino)-pyrido[3,2-d]pyrimidin-2-yl]-methanol]
CN(C)CC(C)(C)COCc1nc(Nc2ccc(C(F)(F)F)cc2)c2ccc(-c3ncccc3C(F)(F)F)cc2n1 [Compound 123, [2-(3-Dimethylamino-2,2-dimethyl-propoxymethyl)-7-(3-trifluoromethyl-pyridin-2-yl)-quinazolin-4-yl]-(4-trifluoromethyl-phenyl)-amine]
CC(C)(C)c1ccc(Nc2nc(COCCCN3CCOCC3)nc3cc(-c4ncccc4C(F)(F)F)ccc23)cc1 [Compound 124, (4-tert-Butyl-phenyl)-[2-(3-morpholin-4-yl-propoxymethyl)-7-(3-trifluoromethyl-pyridin-2-yl)-quinazolin-4-yl]-amine]
CC(C)(C)c1ccc(Nc2nc(COCCCCN3CCOCC3)nc3cc(-c4ncccc4C(F)(F)F)ccc23)cc1 [Compound 125, (4-tert-Butyl-phenyl)-[2-(4-morpholin-4-yl-butoxymethyl)-7-(3-trifluoromethyl-pyridin-2-yl)-quinazolin-4-yl]-amine]
COCc1nc(Nc2ccc(S(=O)(=O)N3CCOCC3)cc2)c2ccc(-c3ncccc3C(F)(F)F)cc2n1 [Compound 126, [2-Methoxymethyl-7-(3-trifluoromethyl-pyridin-2-yl)-quinazolin-4-yl]-[4-(morpholine-4-sulfonyl)-phenyl]-amine]
CCOCc1nc(Nc2ccc(S(=O)(=O)N3CCOCC3)cc2)c2ccc(-c3ncccc3C(F)(F)F)cc2n1 [Compound 127, [2-Ethoxymethyl-7-(3-trifluoromethyl-pyridin-2-yl)-quinazolin-4-yl]-[4-(morpholine-4-sulfonyl)-phenyl]-amine]
CC(C)OCc1nc(Nc2ccc(S(=O)(=O)N3CCOCC3)cc2)c2ccc(-c3ncccc3C(F)(F)F)cc2n1 [Compound 128, [2-Isopropoxymethyl-7-(3-trifluoromethyl-pyridin-2-yl)-quinazolin-4-yl]-[4-(morpholine-4-sulfonyl)-phenyl]-amine]
Cc1cccnc1-c1ccc2c(Nc3ccc(C(C)(C)C)cc3)nc(COCC(C)C)nc2n1 [Compound 129, (4-tert-Butyl-phenyl)-[2-isobutoxymethyl-7-(3-methyl-pyridin-2-yl)-pyrido[2,3-d]pyrimidin-4-yl]-amine]
Cc1cccnc1-c1ccc2c(Nc3ccc(C(C)C)cc3)nc(COCC(C)C)nc2n1 [Compound 130, [2-Isobutoxymethyl-7-(3-methyl-pyridin-2-yl)-pyrido[2,3-d]pyrimidin-4-yl]-(4-isopropyl-phenyl)-amine]
Cc1cccnc1-c1ccc2c(Nc3ccc(C(F)(F)F)cc3)nc(COCC(C)C)nc2n1 [Compound 131, [2-Isobutoxymethyl-7-(3-methyl-pyridin-2-yl)-pyrido[2,3-d]pyrimidin-4-yl]-(4-trifluoromethyl-phenyl)-amine]
CCOCc1nc(Nc2ccc(C(C)(C)C)cc2)c2ccc(-c3ncccc3Cl)nc2n1 [Compound 132, (4-tert-Butyl-phenyl)-[7-(3-chloro-pyridin-2-yl)-2-ethoxymethyl-pyrido[2,3-d]pyrimidin-4-yl]-amine]
CCOCc1nc(Nc2ccc(C(C)C)cc2)c2ccc(-c3ncccc3Cl)nc2n1 [Compound 133, [7-(3-Chloro-pyridin-2-yl)-2-ethoxymethyl-pyrido[2,3-d]pyrimidin-4-yl]-(4-isopropyl-phenyl)-amine]
CCOCc1nc(Nc2ccc(C(F)(F)F)cc2)c2ccc(-c3ncccc3Cl)nc2n1 [Compound 134, [7-(3-Chloro-pyridin-2-yl)-2-ethoxymethyl-pyrido[2,3-d]pyrimidin-4-yl]-(4-trifluoromethyl-phenyl)-amine]
CCOCc1nc(Nc2ccc(S(=O)(=O)C(F)(F)F)cc2)c2ccc(-c3ncccc3Cl)nc2n1 [Compound 135, [7-(3-Chloro-pyridin-2-yl)-2-ethoxymethyl-pyrido[2,3-d]pyrimidin-4-yl]-(4-trifluoromethanesulfonyl-phenyl)-amine]
CCOCc1nc(Nc2ccc(C(C)C(F)(F)F)cc2)c2ccc(-c3ncccc3Cl)nc2n1 (centres unmarked) [Compound 136, [7-(3-Chloro-pyridin-2-yl)-2-ethoxymethyl-pyrido[2,3-d]pyrimidin-4-yl]-[4-(2,2,2-trifluoro-1-methyl-ethyl)-phenyl]-amine]
CCOCc1nc(Nc2ccc(C3CCCC3)cc2)c2ccc(-c3ncccc3Cl)nc2n1 [Compound 137, [7-(3-Chloro-pyridin-2-yl)-2-ethoxymethyl-pyrido[2,3-d]pyrimidin-4-yl]-(4-cyclopentyl-phenyl)-amine]
CCOCc1nc(Nc2ccc(C(F)(F)F)cc2)c2ccc(-c3ncccc3C)nc2n1 [Compound 138, [2-Ethoxymethyl-7-(3-methyl-pyridin-2-yl)-pyrido[2,3-d]pyrimidin-4-yl]-(4-trifluoromethyl-phenyl)-amine]
CCOCc1nc(Nc2ccc(C(C)C)cc2)c2ccc(-c3ncccc3C)nc2n1 [Compound 139, [2-Ethoxymethyl-7-(3-methyl-pyridin-2-yl)-pyrido[2,3-d]pyrimidin-4-yl]-(4-isopropyl-phenyl)-amine]
CCOCc1nc(Nc2ccc(S(=O)(=O)C(F)(F)F)cc2)c2ccc(-c3ncccc3C)nc2n1 [Compound 140, [2-Ethoxymethyl-7-(3-methyl-pyridin-2-yl)-pyrido[2,3-d]pyrimidin-4-yl]-(4-trifluoromethanesulfonyl-phenyl)-amine]
O=S(=O)(c1ccc(Nc2nc(COC3CCOCC3)nc3cc(-c4ncccc4C(F)(F)F)ccc23)cc1)N1CCOCC1 [Compound 141, [4-(Morpholine-4-sulfonyl)-phenyl]-[2-(tetrahydro-pyran-4-yloxymethyl)-7-(3-trifluoromethyl-pyridin-2-yl)-quinazolin-4-yl]-amine]
O=S(=O)(c1ccc(Nc2nc(COCC3CC3)nc3cc(-c4ncccc4C(F)(F)F)ccc23)cc1)N1CCOCC1 [Compound 142, [2-Cyclopropylmethoxymethyl-7-(3-trifluoromethyl-pyridin-2-yl)-quinazolin-4-yl]-[4-(morpholine-4-sulfonyl)-phenyl]-amine]
O=S(=O)(c1ccc(Nc2nc(COC3CCCC3)nc3cc(-c4ncccc4C(F)(F)F)ccc23)cc1)N1CCOCC1 [Compound 143, [2-Cyclopentyloxymethyl-7-(3-trifluoromethyl-pyridin-2-yl)-quinazolin-4-yl]-[4-(morpholine-4-sulfonyl)-phenyl]-amine]
CN(C)CC(O)COCc1nc(Nc2ccc(C(F)(F)F)cc2)c2ccc(-c3ncccc3C(F)(F)F)cc2n1 (centres unmarked) [Compound 144, 1-Dimethylamino-3-[4-(4-trifluoromethyl-phenylamino)-7-(3-trifluoromethyl-pyridin-2-yl)-quinazolin-2-ylmethoxy]-propan-2-ol]
CCN(CC)CC[C@@H](C)OCc1nc(Nc2ccc(C(C)(C)C)cc2)c2ccc(-c3ncccc3C(F)(F)F)cc2n1 [Compound 145, (4-tert-Butyl-phenyl)-[2-(3-diethylamino-1-methyl-propoxymethyl)-7-(3-trifluoromethyl-pyridin-2-yl)-quinazolin-4-yl]-amine]
